“And” between values parts separate entries of the source, which are not always exact repeats. Equal entries are not always repeated.
Tests used:
α-DNP antibody = experiment: Depletion of α-DNP antibody from serum in mice (ELISA); format: in vivo; conditions: i.p.; FIG. 79A
[1] = test system: ASGPR on the surface of immortalized human hepatocyte HepG2 cells; experiment: DNP-GN3-mediated ternary complex formation: association of fluorescently labeled α-DNP antibody with HepG2 cells in suspension; format: cell-based; conditions: for concentration of DNP-GN3 eliciting half-maximal fluorescence association: bell-shaped response, FIG. 86A
Source text: It was investigated whether DNP-GN3 could mediate the formation of a ternary complex between a fluorescently labeled α-DNP antibody and ASGPR on the surface of immortalized human hepatocyte HepG2 cells in suspension. […] The observed bell-shaped response to DNP-GN3 concentration is consistent with the prozone effect commonly observed in systems wherein a ternary complex is formed.

HepG2 cells = experiment: Western blot of α-DNP antibody degradation in HepG2 cells treated with DNP-GN3; format: cell-based, human; conditions: anti-Alexa Fluor 488, FIG. 92A
Method: In addition, western blotting with an antibody directed to Alexa Fluor 488 was used to determine if endocytosed fluorescently labeled α-DNP antibodies are degraded in vitro. […] Signal arising from Alexa Fluor 488 in cell lysates was associated with only full-length antibody after two hours of incubation. After six hours, a lower molecular weight fluorophore-associated protein fragment between 37 and 50 kDa began to appear. An additional protein fragment with a molecular weight between 25 and 37 kDa was observed after 24 hours. […] Together with the above immunofluorescence studies showing the colocalization of α-DNP antibody-derived fluorescence with lysosomes, these studies support that α-DNP antibody degradation is mediated by lysosomal proteases. Lysosomal degradation is further consistent with a mechanism dependent on ASGPR.

Compound: CC(=O)NC1C(OCCOCCOCCNC(=O)CCOCC(COCCC(=O)NCCOCCOCCOC2OC(CO)C(O)C(O)C2NC(C)=O)(COCCC(=O)NCCOCCOCCOC2OC(CO)C(O)C(O)C2NC(C)=O)NC(=O)CNC(=O)COCCOCCOCCNc2ccc([N+](=O)[O-])cc2[N+](=O)[O-])OC(CO)C(O)C1O (centres unmarked) [DNP-GN3]
- degradation of injected anti-DNP IgG antibodies in mouse serum (α-DNP antibody): can induce degradation
- concentration of maximal ternary complex formation ([1]; DNP-GN3): 20 nM and 40 nM
- concentration of DNP-GN3 eliciting half-maximal fluorescence association ([1]; higher concentration (prozone)): 0.12 µM
- concentration of DNP-GN3 eliciting half-maximal fluorescence association ([1]; lower concentration): 0.0074 µM
- fluorophore accumulation in lysates of HepG2 cells (HepG2 cells): accumulate fluorophore in a time- and DNP-GN3-dependent manner

Reference: patent US20230087994A1, “TARGETED BIFUNCTIONAL DEGRADERS” (YALE UNIVERSITY, priority 2019, published 2023)
